Source: patent US20250041379A1, “METHODS AND COMPOSITIONS FOR THE TREATMENT OF CANCER” (Vigeo Therapeutics, Inc., priority 2021, published 2025)
No end group written: not given here.

System: TSP-1
Assay: TSP-1 protein by ELISA in peripheral blood mononuclear cells of rGBM subjects
Format: in vivo, human
Settings: all evaluable subjects with rGBM
Source text: FIG. 10 is a chart showing that VT1021 induces TSP-1 in the circulation and the TME. (A) Bar graph of Tsp-1 protein levels measured by ELISA in circulating MDSCs collected prior to (baseline) and after (induction) treatment with VT1021 from patients who experienced complete or partial response, stable disease, or progressive disease; (B) H&E and immunohistochemical analysis of patient tumor tissue prior to onset (pre) or during treatment with VT1021; (C) Immunohistochemical analysis depicting representative images of high levels of CD36 and CD47.
The blood samples were collected from GBM subjects in the expansion phase, who were treated by VT1021 at 11.8 mg/kg, twice weekly, by IV infusion. VT1021 levels were measured and analyzed among male and female subjects (FIG. 7). […] CD36 and CD47 levels have been measured by immunohistochemistry assays in the pre-treatment tumor biopsy samples of the GBM subjects (FIG. 9, FIG. 10). Levels of Tsp-1 were measured by ELISA for circulating Tsp-1 levels in the collected blood samples, and by immunohistochemistry for the level of Tsp-1 accumulated in the tumor biopsy samples (FIG. 10). The infiltration of immune and inflammatory cells, specifically, MDSCs, T cells and macrophages, were determined by immunohistochemical analysis of the levels of cell surface markers in the tumor biopsy samples of subjects (FIG. 11).

Substance: cyclic DWLPK (also: cyclic, mode of cyclisation not given here) [VT1021, 5-amino acid cyclic peptide from prosaposin; Tsp-1-inducing agent]
- TSP-1 protein in peripheral blood mononuclear cells (PBMCs): induced
